Assay results published in US20040039049A1, “Stable amorphous calcium pseudomonate and processes for the preparation thereof” (CHEMAGIS LTD, priority 2002, published 2004).

Columns and labels:
[1] = Repeat of prior-art process (evaporation of solvents); assay type: physicochemical; settings: prior-art process repeated, regardless of conditions used to distill out the water
Method: Process for the preparation of amorphous calcium pseudomonate is described in U.S. Pat. No. 4,916,155, U.S. Pat. No. 5,191,093 and U.S. Pat. No. 5,436,266. A solution of pseudomonic acid is dissolved in a mixture of methanol and water and neutralized to pH 7.1 with calcium oxide. The solution is filtered and the solvents are evaporated under reduced pressure to give solid foam. Trituration of the foam with diethyl ether affords amorphous calcium pseudomonate.
This decomposition occurred regardless of the conditions used to distill out the water.

[2] = Decomposition of pseudomonic acid during the process of preparing the calcium salt; assay type: physicochemical; settings: for Related Substances (from process) P.A. D / Decomposition Products D.P. I / Decomposition Products D.P. II / Related Substances (from process) P.A. B / Related Substances (from process) P.A. C / Related Substances (from process) P.A. E: before / after preparation of the calcium salt; for Decomposition Products D.P. I / Decomposition Products D.P. II / Related Substances (from process) P.A. B / Related Substances (from process) P.A. C / Related Substances (from process) P.A. E: unit assumed
Method: The calcium pseudomonate solution was prepared by a slow addition of solid calcium hydroxide to a suspension of pseudomonic acid in water. The calcium salt formed is gradually dissolved. The almost clear solution is filtered and frozen.
Pseudomonic acid (100 gr.) is suspended in water (1000 ml). The mixture is cooled below 15° C. and calcium hydroxide (ca. 7.0 gr.) is added gradually until the pH is 8. The slightly turbid mixture is filtered and the solution is frozen and lyophilized. The product obtained is crushed and milled to give amorphous calcium pseudomonate in quantitative yield.

[3] = Stability on storage (related substances and decomposition products); assay type: physicochemical; settings: for Decomposition Products D.P. I / Related Substances (from process) P.A. B / Related Substances (from process) P.A. C / Related Substances (from process) P.A. D / Related Substances (from process) P.A. E: unit assumed
[4] = on storage, prior patents; cited from earlier work

C/C(=C\C(=O)OCCCCCCCCC(=O)[O-])C[C@@H]1OC[C@H](C[C@@H]2O[C@H]2[C@@H](C)[C@H](C)O)[C@@H](O)[C@H]1O.C/C(=C\C(=O)OCCCCCCCCC(=O)[O-])C[C@@H]1OC[C@H](C[C@@H]2O[C@H]2[C@@H](C)[C@H](C)O)[C@@H](O)[C@H]1O.[Ca+2] [amorphous calcium pseudomonate, calcium pseudomonate]
Decomposition during the evaporation of the solvents (in words) [1]: appreciable decomposition
Related Substances (from process) P.A. D [2]: 1.25
Decomposition Products D.P. I [2]: 0.62%
Decomposition Products D.P. II [2]: 1.1%
Related Substances (from process) P.A. B [2]: 0.4%
Related Substances (from process) P.A. C [2]: 0.1%
Related Substances (from process) P.A. E [2]: 0.15%
Decomposition on storage (in words) ([3]; stored at an appropriate temperature): did not show decomposition
Decomposition Products D.P. II ([3]; t = 0): 1.00
Decomposition Products D.P. I ([3]; t = 0): 0.44%
Related Substances (from process) P.A. B ([3]; t = 0): 0.1%
Related Substances (from process) P.A. C ([3]; t = 0): 0.09%
Related Substances (from process) P.A. D ([3]; t = 0): 0.9%
Related Substances (from process) P.A. E ([3]; t = 0): 0.1%
Decomposition Products D.P. II ([3]; t = 18 months (at 2-8° C.)): 1.06
Decomposition Products D.P. I ([3]; t = 18 months (at 2-8° C.)): 0.62%
Related Substances (from process) P.A. B ([3]; t = 18 months (at 2-8° C.)): 0.18%
Related Substances (from process) P.A. C ([3]; t = 18 months (at 2-8° C.)): 0.08%
Related Substances (from process) P.A. D ([3]; t = 18 months (at 2-8° C.)): 0.97%
Related Substances (from process) P.A. E ([3]; t = 18 months (at 2-8° C.)): 0.09%
Thermal stability (in words) [4]: thermally labile

C/C(=C\C(=O)OCCCCCCCCC(=O)O)C[C@@H]1OC[C@H](C[C@@H]2O[C@H]2[C@@H](C)[C@H](C)O)[C@@H](O)[C@H]1O [pseudomonic acid, Pseudomonic acid A]
Related Substances (from process) P.A. D [2]: 1.17
Decomposition Products D.P. I [2]: 0.58%
Decomposition Products D.P. II [2]: 0.81%
Related Substances (from process) P.A. B [2]: 0.57%
Related Substances (from process) P.A. C [2]: 0.16%
Related Substances (from process) P.A. E [2]: 0.21%
Decomposition during the preparation of the calcium salt (in words) ([2]; process of the present invention): no decomposition
